Laboratory results from patent US20200038513A1, “MODULATORS OF FAK PROTEOLYSIS AND ASSOCIATED METHODS OF USE” (ARVINAS OPERATIONS, INC., priority 2018, published 2020).

Experiments:
Fak [1] = biological target: T1, Fak (Homo sapiens, UniProt Q05397); assay: Fak degradation, immunoblotting in PC3 cells; assay type: cell-based; details: PC3 cells, 24 hour treatment; for Dmax: PC-3, degradation maximum, n = 3
Method: PC3 cells were cultured in F12-K (Kaighn's Modification of Ham's F-12 Medium), supplemented with 10% fetal bovine serum (FBS) and 1% penicillin-streptomycin at 37° C. and 5% CO2.
If not indicated otherwise, cells were seeded and grown to 80% confluency and were treated with compound or control for 24 hours. […] After 20 minutes the mixture was spun down at 16,000×g for 10 minutes at 4° C. to pellet insoluble materials. Protein concentration of supernatants were determined via BCA assay (Thermo Fisher) before addition of NuPAGE sample buffer containing 5% β-Me and boiling at 95° C. for 10 minutes. Equal amounts of protein were subjected to SDS-PAGE and subsequent electrophoretic transfer onto nitrocellulose membrane. […] Immunoblots were developed using enhanced chemiluminescence and visualized using a Bio-Rad Chemi-Doc MP Imaging System and quantitated with Image Lab v.5.2.1 software (Bio-Rad Laboratories). Data analysis and statistics was performed using Prism 7.0 (GraphPad).
Examination of Target Protein (Fak) Degradation.

Fak [2] = biological target: T1, Fak; assay: Kinase activity assay (Reaction Biology Corp.); assay type: biochemical; design: purchased Reaction Biology Corp. (contract assay service); details: 10 μM ATP, n = 2
Method: Reactions were carried out at 10 μM ATP. IC50 values were calculated using Prism 7.0 (GraphPad).

[3] = Pharmacokinetics of intraperitoneal or intravenous injection in CD1 mice; assay type: in vivo
Method: The pharmacokinetics of exemplary compounds 103, 107, 100, 101, and 102 was examined for intraperitoneal and intravenous administration. The desired serial concentrations of working solutions were achieved by diluting stock solution (1 mg/mL in DMSO) of analyte with methanol. In particular, 20 μL of working solutions (1, 2, 5, 10, 50, 100, 500, 1000, 2000 ng/mL) were added to 20 μL of the blank CD1 mice plasma to achieve calibration standards of 1-2000 ng/mL (1, 2, 5, 10, 50, 100, 500, 1000, 2000 ng/mL) in a total volume of 40 μL. Dose of IV and IP were diluted by 1000 fold and 10000 with methanol, 20 μL of the diluted dose solutions were added to 20 μL of the blank CD1 mice plasma to achieve dose samples. Next, 40 μL standards and 40 μL dose samples were added to 20 μL of IS (100 ng/mL) and 200 μL of acetonitrile for precipitating protein respectively. Then the samples were vortexed for 30 seconds. After centrifugation at 4 degree Celsius, 4000 rpm for 15 minutes, the supernatant was diluted 3 times with water. 10 μL of the diluted supernatant was injected into the LC/MS/MS system for quantitative analysis.
Exemplary compounds 103, 107, 100, 101, and 102 were administered intravenously (5 second injection of 10% HP-b-CD and 40 mM sodium acetate and 40 mM NaCl in water, pH4.5) or intraperitoneally (5% EtOH and 5% Solutol HS15 in D5W(ESD-2)) to 6-8 week old male CD1 mice (3 mice per treatment group for a total of 12 mice) at the time points indicated below in Table 7. The mice had free access to food and water.
Dorsal metatarsal vein samples (30 μL), except that the final sample was acquired via a heart puncture, were taken from the mice at the same the administration time points as shown in Table 7.

T1 sequence (Q05397 whole entry): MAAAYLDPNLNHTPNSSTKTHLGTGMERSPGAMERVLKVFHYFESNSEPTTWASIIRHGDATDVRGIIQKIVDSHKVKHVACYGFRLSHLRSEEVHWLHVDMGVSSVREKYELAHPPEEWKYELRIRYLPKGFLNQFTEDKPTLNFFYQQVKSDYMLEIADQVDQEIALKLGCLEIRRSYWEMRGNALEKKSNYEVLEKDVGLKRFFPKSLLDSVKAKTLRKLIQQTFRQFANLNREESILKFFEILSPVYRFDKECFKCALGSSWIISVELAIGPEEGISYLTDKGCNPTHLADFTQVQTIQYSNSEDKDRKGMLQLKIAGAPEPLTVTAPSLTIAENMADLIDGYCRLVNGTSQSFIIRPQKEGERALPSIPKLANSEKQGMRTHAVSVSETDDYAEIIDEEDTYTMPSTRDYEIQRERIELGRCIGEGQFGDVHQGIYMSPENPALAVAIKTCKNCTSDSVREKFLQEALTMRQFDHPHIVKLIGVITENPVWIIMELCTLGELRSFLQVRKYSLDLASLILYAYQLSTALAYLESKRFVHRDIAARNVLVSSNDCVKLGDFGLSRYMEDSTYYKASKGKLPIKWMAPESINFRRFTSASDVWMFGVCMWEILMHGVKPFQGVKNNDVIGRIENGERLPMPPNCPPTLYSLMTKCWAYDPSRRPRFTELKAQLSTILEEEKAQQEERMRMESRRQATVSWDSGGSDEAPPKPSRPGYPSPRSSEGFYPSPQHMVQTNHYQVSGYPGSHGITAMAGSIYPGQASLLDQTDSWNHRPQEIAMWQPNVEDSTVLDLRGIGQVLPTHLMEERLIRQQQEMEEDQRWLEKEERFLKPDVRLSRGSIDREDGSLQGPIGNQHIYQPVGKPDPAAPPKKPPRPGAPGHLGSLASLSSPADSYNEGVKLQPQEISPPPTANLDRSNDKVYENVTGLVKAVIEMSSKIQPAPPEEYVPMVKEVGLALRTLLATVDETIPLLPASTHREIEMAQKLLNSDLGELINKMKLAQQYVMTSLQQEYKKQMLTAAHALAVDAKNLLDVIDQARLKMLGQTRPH

Dmax (Fak [1]) [%]	DC50 (Fak [1]; half-maximal degradation concentration) [nM]	IC50 (Fak [2]) [nM]	Fak degradation / effect on Fak levels (in words) (Fak [1])	Compound	AUClast (h * ng/mL) IP ([3]; IP) [ng·h/mL]	T ½ (h) IP ([3]; IP) [h]	AUClast (h * ng/mL) IV ([3]; IV) [ng·h/mL]	T ½ (h) IV ([3]; IV) [h]
91	48.1	6.1 ± 0.1	–	Cc1ncsc1-c1ccc(CNC(=O)[C@@H]2C[C@@H](O)CN2C(=O)[C@@H](NC(=O)CCOCCOCCOCCOCCOc2ccc(Nc3ncc(C(F)(F)F)c(NCc4cccc(N(C)S(C)(=O)=O)c4)n3)cc2)C(C)(C)C)cc1 [Compound 105, (2S,4R)-1-((S)-17-(tert-butyl)-1-(4-((4-((3-(N-methylmethylsulfonamido)benzyl)amino)-5-(trifluoromethyl)pyrimidin-2-yl)amino)phenoxy)-15-oxo-3,6,9,12-tetraoxa-16-azaoctadecan-18-oyl)-4-hydroxy-N-(4-(4-methylthiazol-5-yl)benzyl)pyrrolidine-2-carboxamide]	–	–	–	–
0	–	11.2	no Fak degradation	Cc1ncsc1-c1ccc(CNC(=O)[C@@H]2C[C@H](O)CN2C(=O)[C@@H](NC(=O)CCOCCOc2ccc(Nc3ncc(C(F)(F)F)c(NCc4cccc(N(C)S(C)(=O)=O)c4)n3)cc2)C(C)(C)C)cc1 [Compound 106, (2S,4S)-1-((S)-3,3-dimethyl-2-(3-(2-(4-((4-((3-(N-methylmethylsulfonamido)benzyl)amino)-5-(trifluoromethyl)pyrimidin-2-yl)amino)phenoxy)ethoxy)propanamido)butanoyl)-4-hydroxy-N-(4-(4-methylthiazol-5-yl)benzyl)pyrrolidine-2-carboxamide]	–	–	–	–
–	–	–	–	N-(2-((2-(2,6-dioxopiperidin-3-yl)-1,3-dioxoisoindolin-4-yl)oxy)ethyl)-3-(3-(4-((4-((3-(N-methylmethylsulfonamido)benzyl)amino)-5-(trifluoromethyl)pyrimidin-2-yl)amino)phenoxy)propoxy)propanamide [Compound 108]	208	1.10	3.80	0.058
